Results on 65 molecules are retold here after US20240368113A1, “AMIDE COMPOUND AND USE THEREOF” (Chengdu Fendi Pharmaceutical Co. Ltd., priority 2021, published 2024).

The first test relates to MV-4-11 cells. The experiment in a line: Inhibition of tumor cell proliferation (CellTiter-Glo). The test is classed as cell-based. Particulars: Homo sapiens, MV4-11, 72 h, read-out: IC50 of inhibitory activity of tumor cell proliferation. On the procedure:
MV-4-11 cells were diluted with medium (RPM1640+10% FBS+1% PS) and plated at 4000 cells/well in a white-walled clear-bottom 96-well plate. MV-4-11 cells were plated and incubated in a 5% CO2, 37° C. incubator for 2 hours. Cells were treated with the indicated concentration of compound or DMSO (control), and placed in a 5% CO2, 37° C. incubator for 72 h after dosing. After the end of the culture, equilibrate at room temperature for 30 min, add 100 μl of CellTiter-Glo® Reagent to each well, and shake the microplate shaker for 2 min. After 10 min of incubation at room temperature, the luminescence was measured by a microplate reader, and the cell-free wells were used as the background wells. CC-90009 (celegen patent phase I) was used as a control, and its structural formula was as follows: 0
A general note: ATP-based viability assays read luminescence as a measure of living cells.
On to `O=C(C#Cc1ccc(OP(=O)(Oc2ccccc2)Oc2ccccc2)cc1)NCc1ccc2c(c1)CN(C1CCC(=O)NC1=O)C2=O` (centres unmarked) [Compound 81], for which the IC50 is less than 1 nM.

The same test, now with this note: Homo sapiens, MV4-11; MV-4-11 cells, 72 h, CellTiter-Glo; read-out: IC50 of inhibitory activity of tumor cell proliferation.
On to `O=C(C#Cc1ccc(CC(F)F)cc1)NCc1ccc2c(c1)CN(C1CCC(=O)NC1=O)C2=O` (centres unmarked) [Compound 2], for which the IC50 was less than 1 nM.

For `CC(=O)OCOC(=O)c1ccccc1C#CC(=O)NCc1ccc2c(c1)CN(C1CCC(=O)NC1=O)C2=O` (centres unmarked) [Compound 96], the IC50 was more than 100 nM.

On to `Cc1ccc(C#CC(=O)NCc2ccc3c(c2)CN(C2CCC(=O)NC2=O)C3=O)cc1[N+](=O)[O-]` (centres unmarked) [Compound 51], for which the IC50 is less than 1 nM.

Take `Cc1ccc(C#CC(=O)NCc2ccc3c(c2)CN(C2CCC(=O)NC2=O)C3=O)nc1` (centres unmarked) [Compound 28]: the IC50 lay in the range of 1 to 10 nM.

For `O=C(C#Cc1cccc(O)c1)NCc1ccc2c(c1)CN(C1CCC(=O)NC1=O)C2=O` (centres unmarked) [Compound 19], the IC50 lay in the range of 1 to 10 nM.

Take `O=C(C#Cc1cc(Cl)c(O)c(Cl)c1)NCc1ccc2c(c1)CN(C1CCC(=O)NC1=O)C2=O` (centres unmarked) [Compound 100]: the IC50 is more than 100 nM.

Regarding `O=C(C#Cc1ccc(C(=O)O)cc1Cl)NCc1ccc2c(c1)CN(C1CCC(=O)NC1=O)C2=O` (centres unmarked) [Compound 103], the IC50 fell in the range of 10 to 100 nM.

Consider `O=C(C#Cc1c(O)cccc1Cl)NCc1ccc2c(c1)CN(C1CCC(=O)NC1=O)C2=O` (centres unmarked) [Compound 65], for which the IC50 was in the range of 1 to 10 nM.

In the case of `O=C(C#Cc1c(F)ccnc1F)NCc1ccc2c(c1)CN(C1CCC(=O)NC1=O)C2=O` (centres unmarked) [Compound 68], the IC50 lay in the range of 10 to 100 nM.

Turning to `O=C(C#Cc1ccc(Cl)cc1C(=O)O)NCc1ccc2c(c1)CN(C1CCC(=O)NC1=O)C2=O` (centres unmarked) [Compound 90], the IC50 is more than 100 nM.

`O=C(C#Cc1ccc(F)cc1F)NCc1ccc2c(c1)CN(C1CCC(=O)NC1=O)C2=O` (centres unmarked) [Compound 10]: the IC50 was less than 1 nM.

For `O=C(C#Cc1ccc2nccn2c1)NCc1ccc2c(c1)CN(C1CCC(=O)NC1=O)C2=O` (centres unmarked) [Compound 45], the IC50 is more than 100 nM.

For `Cc1ccc(C#CC(=O)NCc2ccc3c(c2)CN(C2CCC(=O)NC2=O)C3=O)cn1` (centres unmarked) [Compound 31], the IC50 lay in the range of 10 to 100 nM.

Consider `O=C(C#Cc1ccc2occc2c1)NCc1ccc2c(c1)CN(C1CCC(=O)NC1=O)C2=O` (centres unmarked) [Compound 102], for which the IC50 is less than 1 nM.

Regarding `O=C(C#Cc1cnccn1)NCc1ccc2c(c1)CN(C1CCC(=O)NC1=O)C2=O` (centres unmarked) [Compound 37], the IC50 is more than 100 nM.

With `CC(C)(C)OC(=O)c1cccc(C#CC(=O)NCc2ccc3c(c2)CN(C2CCC(=O)NC2=O)C3=O)c1` (centres unmarked) [Compound 70], the IC50 was less than 1 nM.

With `O=C(C#Cc1cnc(Cl)cc1Cl)NCc1ccc2c(c1)CN(C1CCC(=O)NC1=O)C2=O` (centres unmarked) [Compound 39], the IC50 was 1 to 10 nM.

In the case of `CC(C)C(=O)Oc1ccccc1C#CC(=O)NCc1ccc2c(c1)CN(C1CCC(=O)NC1=O)C2=O` (centres unmarked) [Compound 73], the IC50 lay in the range of 1 to 10 nM.

As to `Cc1cccc(C#CC(=O)NCc2ccc3c(c2)CN(C2CCC(=O)NC2=O)C3=O)c1O` (centres unmarked) [Compound 113], the IC50 was less than 1 nM.

Consider `Cc1cc(O)cc(C)c1C#CC(=O)NCc1ccc2c(c1)CN(C1CCC(=O)NC1=O)C2=O` (centres unmarked) [Compound 105], for which the IC50 lay in the range of 1 to 10 nM.

For `O=C(C#Cc1ccc(Cl)nc1)NCc1ccc2c(c1)CN(C1CCC(=O)NC1=O)C2=O` (centres unmarked) [Compound 59], the IC50 lay within 10 to 100 nM.

`O=C(C#Cc1ccc2ncoc2c1)NCc1ccc2c(c1)CN(C1CCC(=O)NC1=O)C2=O` (centres unmarked) [Compound 122]: the IC50 was in the range of 10 to 100 nM.

For the molecule `O=C(C#Cc1ccc2scnc2c1)NCc1ccc2c(c1)CN(C1CCC(=O)NC1=O)C2=O` (centres unmarked) [Compound 121], the IC50 was less than 1 nM.

For `O=C(C#Cc1ccc2[nH]ccc2c1)NCc1ccc2c(c1)CN(C1CCC(=O)NC1=O)C2=O` (centres unmarked) [Compound 108], the IC50 fell in the range of 1 to 10 nM.

In the case of `COc1cccc(C#CC(=O)NCc2ccc3c(c2)CN(C2CCC(=O)NC2=O)C3=O)c1` (centres unmarked) [Compound 46], the IC50 was less than 1 nM.

Take `O=C(C#Cc1cccnc1)NCc1ccc2c(c1)CN(C1CCC(=O)NC1=O)C2=O` (centres unmarked) [Compound 16]: the IC50 lay in the range of 10 to 100 nM.

For `Cc1cc(O)ccc1C#CC(=O)NCc1ccc2c(c1)CN(C1CCC(=O)NC1=O)C2=O` (centres unmarked) [Compound 112], the IC50 fell in the range of 1 to 10 nM.

Consider `O=C(C#CC1CCCCN1C(=O)C(F)(F)F)NCc1ccc2c(c1)CN(C1CCC(=O)NC1=O)C2=O` (centres unmarked) [Compound 85], for which the IC50 is 10 to 100 nM.

With `O=C(C#Cc1coc2ccccc12)NCc1ccc2c(c1)CN(C1CCC(=O)NC1=O)C2=O` (centres unmarked) [Compound 99], the IC50 was less than 1 nM.

For `O=C(C#Cc1cccc(Cl)n1)NCc1ccc2c(c1)CN(C1CCC(=O)NC1=O)C2=O` (centres unmarked) [Compound 40], the IC50 fell in the range of 1 to 10 nM.

With `O=C(C#Cc1ccc(Cl)c(C(=O)O)c1)NCc1ccc2c(c1)CN(C1CCC(=O)NC1=O)C2=O` (centres unmarked) [Compound 104], the IC50 was less than 1 nM.

Consider `O=C(C#Cc1cc2ccccc2[nH]1)NCc1ccc2c(c1)CN(C1CCC(=O)NC1=O)C2=O` (centres unmarked) [Compound 110], for which the IC50 is 1 to 10 nM.

For the molecule `Nc1ccc(C#CC(=O)NCc2ccc3c(c2)CN(C2CCC(=O)NC2=O)C3=O)cc1` (centres unmarked) [Compound 124], the IC50 is 10 to 100 nM.

As to `Nc1cc(F)ccc1C#CC(=O)NCc1ccc2c(c1)CN(C1CCC(=O)NC1=O)C2=O` (centres unmarked) [Compound 50], the IC50 was 1 to 10 nM.

As for `Nc1cc(C#CC(=O)NCc2ccc3c(c2)CN(C2CCC(=O)NC2=O)C3=O)ccc1F` (centres unmarked) [Compound 54], the IC50 was less than 1 nM.

As to `O=C(C#Cc1ccc2ocnc2c1)NCc1ccc2c(c1)CN(C1CCC(=O)NC1=O)C2=O` (centres unmarked) [Compound 123], the IC50 is less than 1 nM.

As for `O=C1CCC(N2Cc3cc(CNC(=O)/C(F)=C/c4cccc(F)c4)ccc3C2=O)C(=O)N1` (centres unmarked) [Compound 14], the IC50 is more than 100 nM.

`O=C(C#Cc1ccc([N+](=O)[O-])cc1F)NCc1ccc2c(c1)CN(C1CCC(=O)NC1=O)C2=O` (centres unmarked) [Compound 47]: the IC50 was more than 100 nM.

On to `O=C(C#CC1CCCCN1)NCc1ccc2c(c1)CN(C1CCC(=O)NC1=O)C2=O` (centres unmarked) [Compound 64], for which the IC50 is more than 100 nM.

Regarding `O=C(C#Cc1ccc(Cl)cn1)NCc1ccc2c(c1)CN(C1CCC(=O)NC1=O)C2=O` (centres unmarked) [Compound 27], the IC50 was in the range of 1 to 10 nM.

`C[Si](C)(C)C#CC(=O)NCc1ccc2c(c1)CN(C1CCC(=O)NC1=O)C2=O` (centres unmarked) [Compound 20]: the IC50 is more than 100 nM.

On to `CC(C)(C)OC(=O)CCC(=O)Oc1ccc(C#CC(=O)NCc2ccc3c(c2)CN(C2CCC(=O)NC2=O)C3=O)cc1` (centres unmarked) [Compound 87], for which the IC50 fell in the range of 10 to 100 nM.

For `O=C(C#CC1CCCCC1)NCc1ccc2c(c1)CN(C1CCC(=O)NC1=O)C2=O` (centres unmarked) [Compound 62], the IC50 is less than 1 nM.

In the case of `O=C(C#Cc1ccccc1)NCc1ccc2c(c1)CN(C1CCC(=O)NC1=O)C2=O` (centres unmarked) [Compound 11], the IC50 is less than 1 nM.

Take `O=C(C#Cc1cccc(C(=O)O)c1)NCc1ccc2c(c1)CN(C1CCC(=O)NC1=O)C2=O` (centres unmarked) [Compound 76]: the IC50 is more than 100 nM.

Consider `O=C(C#CC1CCCC1)NCc1ccc2c(c1)CN(C1CCC(=O)NC1=O)C2=O` (centres unmarked) [Compound 111], for which the IC50 fell in the range of 1 to 10 nM.

As to `CCCC(=O)OCOC(=O)c1cccc(C#CC(=O)NCc2ccc3c(c2)CN(C2CCC(=O)NC2=O)C3=O)c1` (centres unmarked) [Compound 95], the IC50 was more than 100 nM.

In the case of `O=C(C#Cc1ccccc1O)NCc1ccc2c(c1)CN(C1CCC(=O)NC1=O)C2=O` (centres unmarked) [Compound 58], the IC50 lay in the range of 1 to 10 nM.

As for `N#Cc1ccc(C#CC(=O)NCc2ccc3c(c2)CN(C2CCC(=O)NC2=O)C3=O)cn1` (centres unmarked) [Compound 42], the IC50 is more than 100 nM.

`O=C(C#Cc1cccs1)NCc1ccc2c(c1)CN(C1CCC(=O)NC1=O)C2=O` (centres unmarked) [Compound 6]: the IC50 was less than 1 nM.

Consider `Cn1cnc2c(C#CC(=O)NCc3ccc4c(c3)CN(C3CCC(=O)NC3=O)C4=O)cccc21` (centres unmarked) [Compound 133], for which the IC50 was in the range of 1 to 10 nM.

Take `O=C(/C=C/c1ccccc1)NCc1ccc2c(c1)CN(C1CCC(=O)NC1=O)C2=O` (centres unmarked) [Compound 15]: the IC50 was in the range of 1 to 10 nM.

As for `O=C(C#Cc1cc2ccccc2o1)NCc1ccc2c(c1)CN(C1CCC(=O)NC1=O)C2=O` (centres unmarked) [Compound 98], the IC50 is 1 to 10 nM.

For `CC(=O)Oc1ccc(C#CC(=O)NCc2ccc3c(c2)CN(C2CCC(=O)NC2=O)C3=O)cc1` (centres unmarked) [Compound 32], the IC50 lay in the range of 1 to 10 nM.

For the molecule `O=C(O)CCC(=O)Oc1ccc(C#CC(=O)NCc2ccc3c(c2)CN(C2CCC(=O)NC2=O)C3=O)cc1` (centres unmarked) [Compound 86], the IC50 lay within 10 to 100 nM.

With `CC(C)(C)OC(=O)c1ccccc1C#CC(=O)NCc1ccc2c(c1)CN(C1CCC(=O)NC1=O)C2=O` (centres unmarked) [Compound 69], the IC50 is less than 1 nM.

Take `O=C(C#Cc1ccc(F)nc1F)NCc1ccc2c(c1)CN(C1CCC(=O)NC1=O)C2=O` (centres unmarked) [Compound 41]: the IC50 fell in the range of 1 to 10 nM.

For `O=C(C#Cc1ccc2nc[nH]c(=O)c2c1)NCc1ccc2c(c1)CN(C1CCC(=O)NC1=O)C2=O` (centres unmarked) [Compound 128], the IC50 was in the range of 10 to 100 nM.

Take `O=C(C#Cc1ccc(Cl)cc1)NCc1ccc2c(c1)CN(C1CCC(=O)NC1=O)C2=O` (centres unmarked) [Compound 7]: the IC50 is less than 1 nM.

As to `O=C(C#Cc1ccc(C(F)(F)F)cn1)NCc1ccc2c(c1)CN(C1CCC(=O)NC1=O)C2=O` (centres unmarked) [Compound 34], the IC50 lay in the range of 10 to 100 nM.

`O=C(C#Cc1cc2cn[nH]c2cc1F)NCc1ccc2c(c1)CN(C1CCC(=O)NC1=O)C2=O` (centres unmarked) [Compound 129]: the IC50 lay in the range of 10 to 100 nM.

Take `O=C(C#Cc1cc(O)ccc1Cl)NCc1ccc2c(c1)CN(C1CCC(=O)NC1=O)C2=O` (centres unmarked) [Compound 79]: the IC50 fell in the range of 1 to 10 nM.

With `O=C(C#Cc1ccc2ncncc2c1)NCc1ccc2c(c1)CN(C1CCC(=O)NC1=O)C2=O` (centres unmarked) [Compound 127], the IC50 is more than 100 nM.

Regarding `Cn1cnc2cc(C#CC(=O)NCc3ccc4c(c3)CN(C3CCC(=O)NC3=O)C4=O)ccc21` (centres unmarked) [Compound 131], the IC50 was 1 to 10 nM.
